In patent publication US20250262152A1, “DEVICES, SYSTEMS, KITS, AND METHODS FOR DRUG DELIVERY TO THE SPINAL CORD” (Ohio State Innovation Foundation, priority 2022, published 2025):

Test: proof-of-principle fluorescence tracer study: delivery to the spinal cord with dumbbell-shaped dual chamber stentgraft and histamine portal
Assay type: in vivo
Experimental: As a proof-of-principle study, we evaluated this strategy by using a dumbbell-shaped dual chamber stentgraft to deliver a fluorescent tracer (fluorescein dye) to the spinal cord. In this fluorescence tracer study, delivery of the tracer to the spinal cord using the dumbbell stentgraft was performed using a histamine portal (see FIGS. 3A-3C and FIG. 5). The dual chamber stent was used to deliver a “pulse” of histamine specifically to the spinal cord region of interest to create a “portal” in the BBB (i.e., a local increase in BBB permeability).
Dual chamber, retrievable stent graft: Stents were laser cut from the shape memory alloy, nitinol, and thermally shapeset into a dumbbell shape. The scaffold was affixed to a permanently attached delivery/retrieval wire, encapsulated in the polymer polytetrafluoroethelene (Zeus, Inc) with a perfusion cannula to the outer chamber and compressed into a sheath for endovascular delivery.

## O=C1OC2(c3ccc(O)cc3Oc3cc(O)ccc32)c2ccccc21 [fluorescein]
Histamine pulse followed by tracer delivered to outer chamber of dual chamber stentgraft, FIG. 3C
  staining of spinal cord cross sections viewed under UV Woods lamp: successful staining of the entirety of the spinal cord
Local administration in combination with portal agent (histamine) as compared to intravascular tracer injection alone, FIG. 5
  delivery of fluorescein to the spinal cord: much higher
